≈ marks a conversion by molar mass, not a printed value. Like-named read-outs stand apart in the source and are kept apart here.
Experiments:
[1] = molecular target: T1, full-length beta-Catenin (Uniprot ID P35222) (Homo sapiens, UniProt P35222); experiment: Fluorescence polarization IC50 (beta-catenin / 5FAM-TCF4 10-53 competition); assay type: binding
T1 construct: 10 nM full-length beta-Catenin (Uniprot ID P35222)
T1 sequence (P35222 1-781): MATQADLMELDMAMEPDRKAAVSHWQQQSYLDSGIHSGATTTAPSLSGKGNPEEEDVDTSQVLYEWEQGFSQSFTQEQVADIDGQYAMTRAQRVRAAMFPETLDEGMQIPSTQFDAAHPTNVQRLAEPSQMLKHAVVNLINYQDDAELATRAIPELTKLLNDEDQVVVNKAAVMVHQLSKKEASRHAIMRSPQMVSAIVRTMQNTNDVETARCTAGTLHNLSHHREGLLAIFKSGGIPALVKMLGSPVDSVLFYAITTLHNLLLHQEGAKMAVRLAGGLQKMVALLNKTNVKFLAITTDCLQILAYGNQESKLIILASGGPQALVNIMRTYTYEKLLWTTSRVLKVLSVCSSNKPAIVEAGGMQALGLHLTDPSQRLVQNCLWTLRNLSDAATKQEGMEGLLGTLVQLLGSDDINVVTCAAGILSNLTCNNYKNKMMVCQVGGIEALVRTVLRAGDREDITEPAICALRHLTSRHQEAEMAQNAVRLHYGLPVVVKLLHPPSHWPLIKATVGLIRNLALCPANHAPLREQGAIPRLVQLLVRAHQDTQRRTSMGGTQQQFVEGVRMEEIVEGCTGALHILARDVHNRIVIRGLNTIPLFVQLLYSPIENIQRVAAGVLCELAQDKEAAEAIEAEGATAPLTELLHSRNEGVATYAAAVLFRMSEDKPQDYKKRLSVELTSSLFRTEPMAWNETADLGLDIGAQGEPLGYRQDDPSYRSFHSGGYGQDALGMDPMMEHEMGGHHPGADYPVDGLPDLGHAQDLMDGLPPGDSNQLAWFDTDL

Solubility in PBS = assay type: physicochemical
Outline: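 Solubility is derived from HPLC peak areas: the ratio of the PBS supernatant peak to a 50 μM DMSO peptide peak, times 50 uM.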

CHI Log D procedure = assay type: physicochemical; conditions: for chromatographic logD: pH 7.4, CHI Log D; for CHI Log D: pH 7.4
[2] = fluorescence polarization, read-out: beta-Catenin FP IC50

| SMILES | IC50 [1, 2] | Solubility (Solubility in PBS) | chromatographic logD (CHI Log D procedure) | Solubility (Solubility in PBS; Solubility (uM)) | IC50 ([1]; read-out: FP EC50) | CHI Log D (CHI Log D procedure) |
| --- | --- | --- | --- | --- | --- | --- |
| CCCC[C@@H]1NC(=O)[C@H](CC(=O)O)NC(=O)[C@]2(CC=CCCCC3(CCCC=CCCCCCC[C@@](C)(C(=O)N[C@@H](Cc4ccccc4)C(=O)N[C@@H](Cc4csc5ccccc45)C(=O)N[C@@H](CCC(N)=O)C(N)=O)NC(=O)[C@H](C)NC(=O)[C@H](Cc4ccccc4)NC(=O)[C@H](C)NC(=O)[C@H](C)NC(=O)[C@H](CCC(=O)O)NC(=O)[C@H](CC(=O)O)NC3=O)NC1=O)CCCN2C(C)=O (stereo partly drawn) [I-411, Ac-PL3-Asp-nLeu-B5-Asp-Glu-Ala-Ala-Phe-Ala-S8-Phe-BztA-Gln-NH2] | 189 nM | 50 µM (≈ 91.3 µg/mL) | 2.57 |  |  |  |
| CC(=O)N1CCC[C@]12CC=CCCCC1(CCCC=CCCCCCC[C@@](C)(C(=O)N[C@@H](Cc3ccccc3)C(=O)N[C@@H](Cc3csc4ccccc34)C(=O)N[C@@H](CCC(N)=O)C(N)=O)NC(=O)[C@H](CCC(N)=O)NC(=O)[C@H](Cc3ccccc3)NC(=O)[C@H](C)NC(=O)[C@H](C)NC(=O)[C@H](Cc3nn[nH]n3)NC(=O)[C@H](CC(=O)O)NC1=O)NC(=O)[C@H](C)NC(=O)[C@H](CC(=O)O)NC2=O (stereo partly drawn) [I-413, Ac-PL3-Asp-Ala-B5-Asp-tetz-Ala-Ala-Phe-Gln-S8-Phe-BztA-Gln-NH2] | 90 nM |  | 2 | 31 µM (≈ 57.4 µg/mL) |  |  |
| CC(=O)N1CCC[C@]12CC=CCCCC1(CCCC=CCCCCCC[C@@](C)(C(=O)N[C@@H](Cc3ccccc3)C(=O)N[C@@H](Cc3csc4ccccc34)C(=O)N[C@@H](CCC(N)=O)C(N)=O)NC(=O)[C@H](CCC(N)=O)NC(=O)[C@H](Cc3ccccc3)NC(=O)[C@H](C)NC(=O)[C@H](C)NC(=O)[C@H](CCC(=O)O)NC(=O)[C@H](Cc3nn[nH]n3)NC1=O)NC(=O)[C@H](C)NC(=O)[C@H](CC(=O)O)NC2=O (stereo partly drawn) [I-414, Ac-PL3-Asp-Ala-B5-tetz-Glu-Ala-Ala-Phe-Gln-S8-Phe-BztA-Gln-NH2] | 3420 nM | 19 µM (≈ 35.4 µg/mL) |  |  | 3420 nM | 2.096 |
| CC(=O)N1CCC[C@]12CC=CCCCC1(CCCC=CCCCCCC[C@@](C)(C(=O)N[C@@H](Cc3ccccc3)C(=O)N[C@@H](Cc3csc4ccccc34)C(=O)N[C@@H](CCC(N)=O)C(N)=O)NC(=O)[C@H](CCC(N)=O)NC(=O)[C@H](Cc3ccccc3)NC(=O)[C@H](C)NC(=O)[C@H](C)NC(=O)[C@H](CCC(=O)O)NC(=O)[C@H](Cc3nn[nH]n3)NC1=O)NC(=O)[C@H](C)NC(=O)[C@H](CC(=O)O)NC2=O (stereo partly drawn) [I-415, Ac-PL3-Asp-Ala-B5-tetz-Glu-Ala-Ala-Phe-Gln-S8-Phe-BztA-Gln-NH2] | 2200 nM | 45 µM (≈ 83.9 µg/mL) |  |  | 2200 nM | 2.125 |
| CC(=O)N1CCC[C@]12CC=CCCCC1(CCCC=CCCCCCC[C@@](C)(C(=O)N[C@@H](Cc3ccccc3)C(=O)N[C@@H](Cc3csc4ccccc34)C(=O)N[C@@H](Cc3c[nH]cn3)C(N)=O)NC(=O)[C@H](CCC(N)=O)NC(=O)[C@H](Cc3ccccc3)NC(=O)[C@H](C)NC(=O)[C@H](C)NC(=O)[C@H](CCC(=O)O)NC(=O)[C@H](CC(=O)O)NC1=O)NC(=O)[C@H](C)NC(=O)[C@H](CC(=O)O)NC2=O (stereo partly drawn) [I-418, Ac-PL3-Asp-Ala-B5-Asp-Glu-Ala-Ala-Phe-Gln-S8-Phe-BztA-His-NH2] | 149 nM | 32 µM (≈ 59.2 µg/mL) |  |  | 149 nM | 2.089 |
| CC(=O)N1CCC[C@]12CC=CCCCC1(CCCC=CCCCCCC[C@@](C)(C(=O)N[C@@H](Cc3ccccc3)C(=O)N[C@@H](Cc3csc4ccccc34)C(=O)N[C@@H](Cc3c[nH]cn3)C(N)=O)NC(=O)[C@H]([C@@H](C)O)NC(=O)[C@H](Cc3ccccc3)NC(=O)[C@H](C)NC(=O)[C@H](C)NC(=O)[C@H](CCC(=O)O)NC(=O)[C@H](CC(=O)O)NC1=O)NC(=O)[C@H](C)NC(=O)[C@H](CC(=O)O)NC2=O (stereo partly drawn) [I-420, Ac-PL3-Asp-Ala-B5-Asp-Glu-Ala-Ala-Phe-Thr-S8-Phe-BztA-His-NH2] | 128 nM |  | 2.16 | 24 µM (≈ 43.8 µg/mL) |  |  |
| CC(=O)N1CCC[C@]12CC=CCCCC1(CCCC=CCCCCCC[C@@](C)(C(=O)N[C@@H](Cc3ccccc3)C(=O)N[C@@H](Cc3csc4ccccc34)C(=O)N[C@@H](Cc3c[nH]cn3)C(N)=O)NC(=O)[C@H](CC(N)=O)NC(=O)[C@H](Cc3ccccc3)NC(=O)[C@H](C)NC(=O)[C@H](C)NC(=O)[C@H](CCC(=O)O)NC(=O)[C@H](CC(=O)O)NC1=O)NC(=O)[C@H](C)NC(=O)[C@H](CC(=O)O)NC2=O (stereo partly drawn) [I-421, Ac-PL3-Asp-Ala-B5-Asp-Glu-Ala-Ala-Phe-Asn-S8-Phe-BztA-His-NH2] | 99 nM | 36 µM (≈ 66.1 µg/mL) |  |  | 99 nM | 2.087 |
| CC(=O)N1CCC[C@]12CC=CCCCC1(CCCC=CCCCCCC[C@@](C)(C(=O)N[C@@H](Cc3ccccc3)C(=O)N[C@@H](Cc3csc4ccccc34)C(=O)N[C@@H](Cc3c[nH]cn3)C(N)=O)NC(=O)[C@H](CC(N)=O)NC(=O)[C@H](Cc3ccccc3)NC(=O)[C@H](C)NC(=O)[C@H](C)NC(=O)[C@H](CCC(=O)O)NC(=O)[C@H](CC(=O)O)NC1=O)NC(=O)[C@H](C)NC(=O)[C@H](CC(=O)O)NC2=O (stereo partly drawn) [I-422, Ac-PL3-Asp-Ala-B5-Asp-Glu-Ala-Ala-Phe-Asn-S8-Phe-BztA-His-NH2] | 27 nM | 24 µM (≈ 44.1 µg/mL) |  |  | 27 nM | 2.136 |
| CC(=O)N1CCC[C@]12CC=CCCCC1(CCCC=CCCCCCC[C@@](C)(C(=O)N[C@@H](Cc3ccccc3)C(=O)N[C@@H](Cc3csc4ccccc34)C(=O)N[C@@H](CCC(N)=O)C(N)=O)NC(=O)[C@H]([C@@H](C)O)NC(=O)[C@H](Cc3ccccc3)NC(=O)[C@H](C)NC(=O)[C@H](C)NC(=O)[C@H](CCC(=O)O)NC(=O)[C@H](CC(=O)O)NC1=O)NC(=O)[C@H](C)NC(=O)[C@H](CC(=O)O)NC2=O (stereo partly drawn) [I-423, Ac-PL3-Asp-Ala-B5-Asp-Glu-Ala-Ala-Phe-Thr-S8-Phe-BztA-Gln-NH2] | 105 nM |  | 2.09 | 48 µM (≈ 87.1 µg/mL) |  |  |
| CC(=O)N1CCC[C@]12CC=CCCCC1(CCCC=CCCCCCC[C@@](C)(C(=O)N[C@@H](Cc3ccccc3)C(=O)N[C@@H](Cc3csc4ccccc34)C(=O)N[C@@H](CCC(N)=O)C(N)=O)NC(=O)[C@H](CC(N)=O)NC(=O)[C@H](Cc3ccccc3)NC(=O)[C@H](C)NC(=O)[C@H](C)NC(=O)[C@H](CCC(=O)O)NC(=O)[C@H](CC(=O)O)NC1=O)NC(=O)[C@H](C)NC(=O)[C@H](CC(=O)O)NC2=O (stereo partly drawn) [I-424, Ac-PL3-Asp-Ala-B5-Asp-Glu-Ala-Ala-Phe-Asn-S8-Phe-BztA-Gln-NH2] | 170 nM | 50 µM (≈ 91.4 µg/mL) |  |  | 170 nM | 1.968 |
| CC(=O)N1CCC[C@]12CC=CCCCC1(CCCC=CCCCCCC[C@@](C)(C(=O)N[C@@H](Cc3ccccc3)C(=O)N[C@@H](Cc3csc4ccccc34)C(=O)N[C@@H](CCC(N)=O)C(N)=O)NC(=O)[C@H](CC(N)=O)NC(=O)[C@H](Cc3ccccc3)NC(=O)[C@H](C)NC(=O)[C@H](C)NC(=O)[C@H](CCC(=O)O)NC(=O)[C@H](CC(=O)O)NC1=O)NC(=O)[C@H](C)NC(=O)[C@H](CC(=O)O)NC2=O (stereo partly drawn) [I-425, Ac-PL3-Asp-Ala-B5-Asp-Glu-Ala-Ala-Phe-Asn-S8-Phe-BztA-Gln-NH2] | 50 nM | 45 µM (≈ 82.2 µg/mL) |  |  | 50 nM | 2.01 |

From US20240116985A1, “STAPLED PEPTIDES AND METHODS THEREOF” (priority 2020, published 2024)
